This is an account of results in US20220304976A1, “Method of simultaneously treating viral disease caused coronavirus, its variants and mutants using a pharmaceutical micronutrient composition” (priority 2021, published 2022).

Experiment [1] relates to IL-6 secretion. In words: Interleukin 6 (IL-6) assay in HSAEpC (ELISA). The settings on record: LPS 5 mcg/ml. The format is cell-based, human. For orientation: An ELISA detects its analyte on a solid surface through an enzyme-linked reagent.
Protocol: Interleukin 6 (IL-6) assay: Human Small Airways Epithelial Cells (HSAEpC) were supplied by ATCC and cultured in Small Airways Epithelial Cells culture medium (ATCC). SAEC cells were seeded in six-well plates covered with collagen at 6 passage and grown to confluent layer. […] After 72 hours incubation conditioned media were collected and IL-6 content was measured using R&D Systems Human IL6 ELISA assay in accordance with the manufacture's protocol. Results were calculated with Microsoft Excel software and presented as a percentage of unsupplemented controls (an average of three repetitions+/−standard deviation).
The target in experiment [2] is T1, hACE2 receptor (Homo sapiens, UniProt Q9BYF1).
T1 construct: purchased GenScript
It is filed as binding.

For experiment [3], the system named is SARS-CoV-2 spike protein pseudo-typed virions. It is filed as cell-based.
The target in experiment [4] is T2, RBD of SARS-CoV-2 spike protein binding to hACE2 receptor (Severe acute respiratory syndrome coronavirus 2, UniProt P0DTC2).
T2 construct: purchased GenScript
Kind of experiment: biochemical.

Experiment [5] relates to SARS-CoV-2 spike protein pseudo-typed virions. It is filed as cell-based. The source holds these as a separate data set.

T1 sequence (Q9BYF1 18-740): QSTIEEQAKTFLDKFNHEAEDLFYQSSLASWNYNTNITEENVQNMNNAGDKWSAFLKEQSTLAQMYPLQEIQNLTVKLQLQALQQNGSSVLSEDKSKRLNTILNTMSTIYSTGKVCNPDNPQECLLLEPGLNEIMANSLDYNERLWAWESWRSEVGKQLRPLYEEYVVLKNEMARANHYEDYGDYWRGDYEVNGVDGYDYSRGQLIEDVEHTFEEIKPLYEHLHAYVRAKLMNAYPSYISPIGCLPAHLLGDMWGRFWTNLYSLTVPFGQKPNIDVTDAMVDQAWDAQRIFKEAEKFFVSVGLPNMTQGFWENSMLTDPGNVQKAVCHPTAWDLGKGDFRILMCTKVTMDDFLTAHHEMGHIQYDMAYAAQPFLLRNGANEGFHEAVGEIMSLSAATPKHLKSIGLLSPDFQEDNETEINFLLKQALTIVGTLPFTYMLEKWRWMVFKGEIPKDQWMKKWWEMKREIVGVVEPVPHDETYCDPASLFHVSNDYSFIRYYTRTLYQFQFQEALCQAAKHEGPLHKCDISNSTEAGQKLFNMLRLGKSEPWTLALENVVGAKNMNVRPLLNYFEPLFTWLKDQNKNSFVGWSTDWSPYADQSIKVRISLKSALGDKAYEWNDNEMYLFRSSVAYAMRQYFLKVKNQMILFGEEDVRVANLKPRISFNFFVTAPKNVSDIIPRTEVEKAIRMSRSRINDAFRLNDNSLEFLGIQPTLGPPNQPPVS

For lipopolysaccharide, in experiment [1], the “increase of IL-6 secretion” value came out at 43%.

As for `Oc1ccc2c(c1)OC[C@]1(O)Cc3cc(O)c(O)cc3[C@H]21` [Brazilin], the “binding to the ACE2 receptor itself (in words)” value in experiment [2] is “neither brazilin, nor theaflavin-3,3′-digallate displayed binding affinity”. In addition, the “Binging with ACE2 (% of control ± SD)” value in experiment [2] (Table 3, tested at 0.1 mg/ml) was 4.6 ± 2.2 % of control. Besides, in experiment [3], the “concentration from which inhibition of transduction is statistically significant” value was 10 µg/mL. In experiment [4], the “affinity in binding to the RBD-spike protein of SARS-CoV-2 (in words)” value is “exhibited the highest affinity”. The inhibition at 100 µg/mL in experiment [4] (100 μg/ml, read-out: efficacy in inhibiting RBD binding to hACE2) came out at 100%. The “inhibition of pseudo-typed virion binding to hACE2/A549 (in words)” value in experiment [5] is “similarly inhibited binding”.
